Measured values reported in patent US9320739B2 (AMBIT BIOSCIENCES CORPORATION, priority 2008, dated 2016).
pKd: −log10 of the molar value.

tested on: panel of 290 distinct kinases (321 in the larger panel), excluding mutant variants; experiment: not given; conditions: no asterisk: panel of 290 distinct kinases

SMILES | S35
COc1cc2ncnc(Oc3cccc(NC(=O)Nc4cc(C(C)(C)C)nn4-c4cncc(F)c4)c3)c2cc1OC [Ex 326, 1-(3-tert-butyl-1-(5-fluoropyridin-3-yl)-1H-pyrazol-5-yl)-3-(3-(6,7-dimethoxyquinazolin-4-yloxy)phenyl)urea] | D (D > 0.40)
CCc1cc(NC(=O)Nc2cccc(Oc3ncnc4cc(OC)c(OC)cc34)c2)n(-c2ccccc2)n1 [Ex 352, 1-(3-(6,7-dimethoxyquinazolin-4-yloxy)phenyl)-3-(3-ethyl-1-phenyl-1H-pyrazol-5-yl)urea] | C (0.20 < C ≦ 0.40)
COc1cc2ncnc(Oc3cccc(NC(=O)Nc4cc(C(C)C)nn4-c4cccnc4)c3)c2cc1OC [Ex 350, 1-(3-(6,7-dimethoxyquinazolin-4-yloxy)phenyl)-3-(3-isopropyl-1-(pyridin-3-yl)-1H-pyrazol-5-yl)urea] | D (D > 0.40)
CCn1nc(C(C)(C)C)cc1NC(=O)Nc1cccc(Sc2ncnc3cc(OC)c(OC)cc23)c1 [Ex 321, 1-(3-tert-butyl-1-ethyl-1H-pyrazol-5-yl)-3-(3-(6,7-dimethoxyquinazolin-4-ylthio)phenyl)urea] | C (0.20 < C ≦ 0.40)
COc1cc2ncnc(Sc3cccc(NC(=O)Nc4cc(C(C)(F)F)nn4-c4ccccc4)c3)c2cc1OC [Ex 319, 1-(3-(1,1-difluoroethyl)-1-phenyl-1H-pyrazol-5-yl)-3-(3-(6,7-dimethoxyquinazolin-4-ylthio)phenyl)urea] | C (0.20 < C ≦ 0.40)
COc1cc2ncnc(Oc3cccc(NC(=O)Nc4cc(C(C)(C)C)nn4-c4ccccc4C)c3)c2cc1OC [Ex 342, 1-(3-tert-butyl-1-o-tolyl-1H-pyrazol-5-yl)-3-(3-(6,7-dimethoxyquinazolin-4-yloxy)phenyl)urea] | D (D > 0.40)
COc1ccc(-n2nc(C(C)C)cc2NC(=O)Nc2cccc(Oc3ncnc4cc(OC)c(OC)cc34)c2)cc1 [Ex 348, 1-(3-(6,7-dimethoxyquinazolin-4-yloxy)phenyl)-3-(3-isopropyl-1-(4-methoxyphenyl)-1H-pyrazol-5-yl)urea] | D (D > 0.40)
COc1cc2ncnc(Oc3cccc(NC(=O)Nc4cc(C(F)(F)F)nn4-c4cccc(C)c4)c3)c2cc1OC [Ex 338, 1-(3-(6,7-dimethoxyquinazolin-4-yloxy)phenyl)-3-(1-m-tolyl-3-(trifluoromethyl)-1H-pyrazol-5-yl)urea] | C (0.20 < C ≦ 0.40)
COc1cc2ncnc(Oc3cccc(NC(=O)Nc4cc(C(C)(C)C)nn4CC(C)C)c3)c2cc1OC [Ex 332, 1-(3-tert-butyl-1-isobutyl-1H-pyrazol-5-yl)-3-(3-(6,7-dimethoxyquinazolin-4-yloxy)phenyl)urea] | C (0.20 < C ≦ 0.40)
COc1ccc(-n2nc(C(C)(F)F)cc2NC(=O)Nc2cccc(Oc3ncnc4cc(OC)c(OC)cc34)c2)cc1 [Ex 315, 1-(3-(1,1-difluoroethyl)-1-(4-methoxyphenyl)-1H-pyrazol-5-yl)-3-(3-(6,7-dimethoxyquinazolin-4-yloxy)phenyl)urea] | D (D > 0.40)
COc1cc2ncnc(Oc3cccc(NC(=O)Nc4cc(C(C)(F)F)nn4-c4ccccc4)c3)c2cc1OC [Ex 318, 1-(3-(1,1-difluoroethyl)-1-phenyl-1H-pyrazol-5-yl)-3-(3-(6,7-dimethoxyquinazolin-4-yloxy)phenyl)urea] | C (0.20 < C ≦ 0.40)
COc1cc2ncnc(Oc3cccc(NC(=O)Nc4cc(C(C)(C)C)nn4-c4ccnc(C)c4)c3)c2cc1OC [Ex 320, 1-(3-tert-butyl-1-(2-methylpyridin-4-yl)-1H-pyrazol-5-yl)-3-(3-(6,7-dimethoxyquinazolin-4-yloxy)phenyl)urea] | D (D > 0.40)
COc1cc2ncnc(Sc3cccc(NC(=O)Nc4cc(C(C)(C)C)nn4-c4ccccc4Cl)c3)c2cc1OC [Ex 341, 1-(3-tert-butyl-1-(2-chlorophenyl)-1H-pyrazol-5-yl)-3-(3-(6,7-dimethoxyquinazolin-4-ylthio)phenyl)urea] | C (0.20 < C ≦ 0.40)
COc1cc2ncnc(Oc3cccc(NC(=O)Nc4cc(C5CC5)nn4-c4ccccc4)c3)c2cc1OC [Ex 353, 1-(3-cyclopropyl-1-phenyl-1H-pyrazol-5-yl)-3-(3-(6,7-dimethoxyquinazolin-4-yloxy)phenyl)urea] | C (0.20 < C ≦ 0.40)
COc1cc2nc(Cl)nc(Oc3cccc(NC(=O)Nc4cc(C(C)(C)C)on4)c3)c2cc1OC [Ex 310, 1-(5-tert-butylisoxazol-3-yl)-3-(3-(2-chloro-6,7-dimethoxyquinazolin-4-yloxy)phenyl)urea] | A (A ≦ 0.10)
COc1cc2ncnc(Oc3cccc(NC(=O)Nc4cc(C(C)(C)C)nn4-c4cccnc4)c3)c2cc1OC [Ex 322, 1-(3-tert-butyl-1-(pyridin-3-yl)-1H-pyrazol-5-yl)-3-(3-(6,7-dimethoxyquinazolin-4-yloxy)phenyl)urea] | D (D > 0.40)
COc1cc2ncnc(Sc3cccc(NC(=O)Nc4cc(C(C)(C)C)nn4-c4ccccc4C)c3)c2cc1OC [Ex 343, 1-(3-tert-butyl-1-o-tolyl-1H-pyrazol-5-yl)-3-(3-(6,7-dimethoxyquinazolin-4-ylthio)phenyl)urea] | C (0.20 < C ≦ 0.40)
COc1cc2ncnc(Oc3cccc(NC(=O)Nc4cc(C5CCC5)nn4-c4ccccc4)c3)c2cc1OC [Ex 355, 1-(3-cyclobutyl-1-phenyl-1H-pyrazol-5-yl)-3-(3-(6,7-dimethoxyquinazolin-4-yloxy)phenyl)urea] | C (0.20 < C ≦ 0.40)
COc1cc2ncnc(Oc3cccc(NC(=O)Nc4cc(C(C)(C)C)nn4-c4ccccc4Cl)c3)c2cc1OC [Ex 340, 1-(3-tert-butyl-1-(2-chlorophenyl)-1H-pyrazol-5-yl)-3-(3-(6,7-dimethoxyquinazolin-4-yloxy)phenyl)urea] | D (D > 0.40)
COc1cc2ncnc(Oc3cccc(NC(=O)Nc4cc(C(C)(C)C)nn4-c4cc[nH]c(=O)c4)c3)c2cc1OC [Ex 313, 1-(3-tert-butyl-1-(2-oxo-1,2-dihydropyridin-4-yl)-1H-pyrazol-5-yl)-3-(3-(6,7-dimethoxyquinazolin-4-yloxy)phenyl)urea] | D (D > 0.40)
COc1cc2ncnc(Oc3cccc(NC(=O)Nc4cc(C(C)(C)C(F)(F)F)nn4-c4ccccc4)c3)c2cc1OC [Ex 306, 1-(3-(6,7-dimethoxyquinazolin-4-yloxy)phenyl)-3-(1-phenyl-3-(1,1,1-trifluoro-2-methylpropan-2-yl)-1H-pyrazol-5-yl)urea] | D (D > 0.40)
COc1cc2ncnc(Oc3cccc(NC(=O)Nc4cc(C(C)C)nn4-c4ccccc4)c3)c2cc1OC [Ex 324, 1-(3-(6,7-dimethoxyquinazolin-4-yloxy)phenyl)-3-(3-isopropyl-1-phenyl-1H-pyrazol-5-yl)urea] | D (D > 0.40)
COc1cc2ncnc(Sc3cccc(NC(=O)Nc4cc(C(C)(C)C)nn4-c4cccnc4)c3)c2cc1OC [Ex 323, 1-(3-tert-butyl-1-(pyridin-3-yl)-1H-pyrazol-5-yl)-3-(3-(6,7-dimethoxyquinazolin-4-ylthio)phenyl)urea] | D (D > 0.40)

same assay, conditions: no asterisk: panel of 290 distinct kinases; fraction of kinases inhibited 65% or greater

SMILES | S35
COc1cc2ncnc(Oc3cccc(NC(=O)Nc4ccc(Cl)cc4)c3)c2cc1OC [Ex 175, 1-(4-chlorophenyl)-3-(3-(6,7-dimethoxyquinazolin-4-yloxy)phenyl)urea] | C (0.20 < C ≦ 0.40)
COc1cc2ncnc(Oc3cc(NC(=O)Nc4cc(C(C)(C)C)on4)ccc3Cl)c2cc1OC [Ex 10, 1-(5-tert-butylisoxazol-3-yl)-3-(4-chloro-3-(6,7-dimethoxyquinazolin-4-yloxy)phenyl)urea] | D (D > 0.40)
COc1cc2c(Sc3cccc(NC(=O)Nc4cc(C(C)(C)C)on4)c3)ncnc2cc1OCCN1CCN(CCO)CC1 [Ex 84, 1-(5-tert-butylisoxazol-3-yl)-3-(3-(7-(2-(4-(2-hydroxyethyl)piperazin-1-yl)ethoxy)-6-methoxyquinazolin-4-ylthio)phenyl)urea] | D (D > 0.40)
COc1cc(OC2CCOCC2)c2c(Sc3cccc(NC(=O)Nc4cc(C(C)(C)C)on4)c3)ncnc2c1 | C (0.20 < C ≦ 0.40)

molecular target: T1, RAF kinases (Homo sapiens, UniProt P04049); experiment: Competition binding assay to determine binding constants (Kd) between compounds and RAF kinases; conditions: RAF1
T1 construct: rows headed: RAF1 Kd; other: RAF1; fused on or other part: T7 phage fusion, or DNA tag for PCR detection after expression in HEK-293 cells
T1 sequence (P04049 whole entry, the tested form may be a part): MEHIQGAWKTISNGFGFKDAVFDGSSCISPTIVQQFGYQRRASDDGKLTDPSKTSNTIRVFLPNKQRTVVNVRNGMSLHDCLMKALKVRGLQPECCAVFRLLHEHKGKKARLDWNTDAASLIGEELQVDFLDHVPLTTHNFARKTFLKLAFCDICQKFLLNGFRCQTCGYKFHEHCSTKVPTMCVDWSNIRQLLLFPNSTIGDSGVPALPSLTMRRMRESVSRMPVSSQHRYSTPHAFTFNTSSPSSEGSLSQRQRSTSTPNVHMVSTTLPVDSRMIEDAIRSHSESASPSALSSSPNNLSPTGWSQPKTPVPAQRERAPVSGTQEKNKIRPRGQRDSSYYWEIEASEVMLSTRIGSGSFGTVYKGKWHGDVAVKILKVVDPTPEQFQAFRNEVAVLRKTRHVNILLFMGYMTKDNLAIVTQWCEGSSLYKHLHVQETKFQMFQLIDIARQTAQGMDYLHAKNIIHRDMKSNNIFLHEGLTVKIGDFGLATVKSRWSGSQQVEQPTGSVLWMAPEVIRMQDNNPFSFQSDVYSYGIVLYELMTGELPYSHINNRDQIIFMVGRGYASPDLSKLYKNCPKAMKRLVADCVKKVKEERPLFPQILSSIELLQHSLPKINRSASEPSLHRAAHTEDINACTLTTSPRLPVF
Experimental: (§1) Competition binding assays used herein were developed, validated and performed as described in Fabian et al., Nature Biotechnology 2005, 23, 329-336. […] The liganded beads were blocked with excess biotin and washed with blocking buffer (SeaBlock (Pierce), 1% BSA, 0.05% Tween 20, 1 mM DTT) to remove unbound ligand and to reduce non-specific binding. […] Test compounds were prepared as 100× stocks in DMSO and rapidly diluted into the aqueous environment. DMSO was added to control assays lacking a test compound. Primary screen interactions were performed in polypropylene 384-well plates in a final volume of 34 μL, while Kd determinations were performed in polystyrene 96-well plates in a final volume of 135 pt. […] The kinase concentration in the eluates was measured by quantitative PCR. Each kinase was tested individually against each compound. Kds were determined using eleven serial threefold dilutions. A selectivity score, which is a quantitative measure of selectivity of a compound against a panel of enzymes, may be calculated for a compound by dividing the number of enzymes for which a compound meets a set criteria, (for example, a binding constant of 100 nM or less), by the total number of enzymes tested. […] (Note, for those compounds tested in a larger kinase panel, as indicated by an asterisk (*) next to the S35 score, the divisor is 321 (i.e. the larger panel contains 321 distinct kinases, excluding mutant variants.)).

SMILES | pKd
COc1cc2ncnc(Oc3cccc(NC(=O)Nc4ccc(Cl)cc4)c3)c2cc1OC [Ex 175, 1-(4-chlorophenyl)-3-(3-(6,7-dimethoxyquinazolin-4-yloxy)phenyl)urea] | > 6.60
COc1cc2ncnc(Oc3cc(NC(=O)Nc4cc(C(C)(C)C)on4)ccc3Cl)c2cc1OC [Ex 10, 1-(5-tert-butylisoxazol-3-yl)-3-(4-chloro-3-(6,7-dimethoxyquinazolin-4-yloxy)phenyl)urea] | 6.00 to 6.30

molecular target: T2, RAF kinases (Homo sapiens, UniProt P15056); experiment: as above; conditions: BRAF WT
T2 construct: rows headed: BRAF WT Kd; other: BRAF WT; fused on or other part: T7 phage fusion, or DNA tag for PCR detection after expression in HEK-293 cells
T2 sequence (P15056 whole entry, the tested form may be a part): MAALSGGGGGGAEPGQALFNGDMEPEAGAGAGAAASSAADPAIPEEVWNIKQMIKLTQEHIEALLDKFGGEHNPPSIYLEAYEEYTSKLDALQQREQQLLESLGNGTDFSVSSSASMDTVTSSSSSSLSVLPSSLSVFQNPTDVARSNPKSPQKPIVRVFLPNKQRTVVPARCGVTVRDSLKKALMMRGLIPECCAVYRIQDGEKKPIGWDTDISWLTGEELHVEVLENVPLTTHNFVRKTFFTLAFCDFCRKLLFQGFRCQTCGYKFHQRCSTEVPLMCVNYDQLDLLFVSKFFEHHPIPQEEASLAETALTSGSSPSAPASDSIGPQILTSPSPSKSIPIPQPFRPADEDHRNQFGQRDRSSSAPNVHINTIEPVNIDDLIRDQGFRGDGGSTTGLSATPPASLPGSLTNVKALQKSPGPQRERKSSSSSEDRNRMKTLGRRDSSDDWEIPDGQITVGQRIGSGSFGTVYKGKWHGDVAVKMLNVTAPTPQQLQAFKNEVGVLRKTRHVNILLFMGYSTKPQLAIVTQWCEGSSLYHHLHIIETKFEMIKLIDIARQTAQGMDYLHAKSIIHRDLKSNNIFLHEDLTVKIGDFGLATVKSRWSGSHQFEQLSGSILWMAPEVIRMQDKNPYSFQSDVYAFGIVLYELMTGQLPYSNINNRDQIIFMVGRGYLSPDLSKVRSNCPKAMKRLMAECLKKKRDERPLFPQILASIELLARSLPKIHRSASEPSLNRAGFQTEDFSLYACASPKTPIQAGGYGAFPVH
Experimental: as §1

SMILES | pKd
COc1cc2ncnc(Oc3cccc(NC(=O)Nc4ccc(Cl)cc4)c3)c2cc1OC [Ex 175, 1-(4-chlorophenyl)-3-(3-(6,7-dimethoxyquinazolin-4-yloxy)phenyl)urea] | > 6.60

molecular target: T3, RAF kinases (Homo sapiens, UniProt P15056, V600E); experiment: as above; conditions: BRAF V600E
T3 construct: rows headed: BRAF V600E Kd; other: BRAF V600E; fused on or other part: T7 phage fusion, or DNA tag for PCR detection after expression in HEK-293 cells
T3 sequence (P15056 whole entry V600E, the tested form may be a part): as the sequence (P15056 whole entry, the tested form may be a part) above, with V600E counted along it
Experimental: as §1

SMILES | pKd
COc1cc2ncnc(Oc3cccc(NC(=O)Nc4ccc(Cl)cc4)c3)c2cc1OC [Ex 175, 1-(4-chlorophenyl)-3-(3-(6,7-dimethoxyquinazolin-4-yloxy)phenyl)urea] | > 6.60
COc1cc2ncnc(Oc3cccc(NC(=O)Nc4cc(C(F)(F)F)n(-c5ccccc5)n4)c3)c2cc1OC [Ex 169, 1-[3-(6,7-dimethoxyquinazolin-4-yloxy)phenyl]-3-[1-phenyl-5-(trifluoromethyl)-1H-pyrazol-3-yl]urea] | 6.30 to 6.60
